Where two headings read alike, the source gives them in different places.
Columns and labels:
[1] = cited from earlier work
[2] = Penetration of drugs through shed snake skin pretreated with enhancer (Franz diffusion cell, HPLC); settings: for RE (Relative enhancement compared to Azone®) / R.E. (Relative enhancement): 32°C; for R.E. (Relative enhancement): pH 7.0, relative to control (=1)
Description: The penetration promoting activity of DAIPD was compared to that of Azone®, taken as a typical enhancer, using shed snake skin as a model membrane. […] The permeants were selected to provide examples of basic drugs (clonidine), neutral drugs (hydrocortisone) and acidic drugs (indomethacin).
Shed snake skins were prepared as previously reported (Büyüktimkin, S., Büyüktimkin, N., and Rytting, J.H., Synthesis and enhancing effect of dodecyl 2-(N,N-dimethylamino) propionate on the transepidermal delivery of indomethacin, clonidine, and hydrocortisone, Pharm. Res., 10: 1632-1637, 1993) and as described in U.S. Patents No. 4,980,378 and No. 5,082,866, the disclosures of which are incorporated herein by reference. Shed snake skins were stored at -20°C. Before the experiment they were allowed to come to room temperature at least 12 hours before use. To reduce the variability of results, pieces cut from the same whole snake skin were used for each set of experiments
Indomethacin, clonidine, and hydrocortisone were assayed by HPLC procedures as described earlier; see Büyüktimkin et al., (1993), above.
Pieces of shed snake skin (approximately 3 x 3 cm) were pretreated with 15 µl of enhancer (divided into three 5 µl portions) 2 hr before the experiment. After mounting the skin on top of a Franz receptor cell filled with pH 7.0 (0.1 M) phosphate buffer, the donor cell was clamped on the top of the receptor cell. An aliquot of 0.5 ml of a suspension of hydrocortisone or indomethacin, prepared by suspending 50 mg or 25 mg of the drugs respectively, in 25 ml of the same buffer and stirring for 24 hr at 32°C, or a solution of clonidine (2%) in the same buffer were added to the donor cell. The solution in the receptor compartment was stirred by a magnetic stirrer. At appropriate time intervals samples were withdrawn from the receptor compartment and analyzed by HPLC.

[3] = n-octanol/pH 7.0 buffer; cited from earlier work
porcine esterase = assay: Biodegradability of the enhancer in the presence of porcine esterase (HPLC disappearance of enhancer peak); assay type: in vitro ADME; settings: 32°C, pH 7.0
Description: A 0.1 ml aliquot of porcine esterase (235 units per mg protein) was diluted to 100 ml with pH 7.0 phosphate buffer. The enhancer solution was prepared by dissolving -12 mg (-0.045 mmoles) of the enhancer in 10 ml acetonitrile. An aliquot of 100 µl of this solution was transferred into a 10 ml volumetric flask. 9.8 ml of pH 7.0 buffer and 100 µl diluted esterase solution were added. The mixture was kept in a water bath at 32°C with constant stirring. The disappearance of the enhancer peak was monitored by HPLC. The absorbance wavelength was 204 nm. The solvent system was a mixture of acetonitrile and 0.02 M aqueous sodium hexanesulfonate (7:4) with a flow rate of 0.9 ml/min. The retention time of DAIPD was 3.95 min. The kinetic runs were done in triplicate.
The existence of esterase activity has been reported in shed snake skin (Nghiem, B.T., and Higuchi, T., Esterase activity in snake skin, Int. J. Pharm. 44: 125-130, 1988) . To confirm the biodegradability of DAIPD, its fragmentation in the presence of porcine esterase was examined. […] Esterase-catalyzed biodegradability of the enhancer is therefore confirmed. […] (Hirvonen, J., Paronen, P., and Urtti, A., Reversible enhancement of transdermal propranolol by dodecyl N,N-dimethylamino acetate, 18th International Symposium on Controlled Release of Bioactive Materials, July 8-11, 1991, Amsterdam, p 31).

Row | SMILES | RE (Relative enhancement compared to Azone®) ([2]; Clonidine) | RE (Relative enhancement compared to Azone®) ([2]; Hydrocortisone) | RE (Relative enhancement compared to Azone®) ([2]; Indomethacin) | R.E. (Relative enhancement) ([2]; clonidine) | R.E. (Relative enhancement) ([2]; hydrocortisone) | R.E. (Relative enhancement) ([2]; indomethacin) | log P [3] | also measured
1 | CCCCCCCCCCCCN1CCCCCC1=O [Azone®, 1-dodecylazacycloheptane-2-one] | 1 | 1 | 1 | 13 | 41 | 46 |  | enhancement of transdermal delivery of propranolol following pretreatment ([1]; after a week): the enhancement still existed; RE (Relative enhancement compared to Azone®) ([2]; Prazosin (45% ethanolic solution)): 1; RE (Relative enhancement compared to Azone®) ([2]; Prostaglandin E1): 1
2 | CCCCCCCCCCCCOC(=O)CN(C)C [DDAA, dodecyl N,N-dimethylamino acetate] |  |  |  |  |  |  |  | enhancement of transdermal delivery of propranolol following pretreatment ([1]; after 4 days): no longer enhanced
3 | Clc1cccc(Cl)c1N=C1NCCN1 [clonidine] |  |  |  |  |  |  | 0.4 | 
4 | COc1ccc2c(c1)c(CC(=O)O)c(C)n2C(=O)c1ccc(Cl)cc1 [indomethacin] |  |  |  |  |  |  | 1.2 | 
5 | C[C@]12CCC(=O)C=C1CC[C@@H]1[C@@H]2[C@@H](O)C[C@@]2(C)[C@H]1CC[C@]2(O)C(=O)CO [hydrocortisone] |  |  |  |  |  |  | 0.8 | 
6 | CCCCCCCCCCCC(=O)OC(C)CN(C)C (stereo not shown) [DAIPD, 1-(N,N-dimethylamino)-2-propanol dodecanoate] | approximately two-fold | approximately two-fold | approximately equal to that of Azone® | 27 | 88 | 53 |  | half-life at 45 µM (porcine esterase; pig, porcine esterase in phosphate buffer, degradation): 1.32 h; kobs (porcine esterase; pseudo first order degradation): 0.0087 min⁻¹; Lag times ([2]; permeation of Clonidine, standard deviation in brackets): No lag time enhancement was found
